According to ChEMBL document CHEMBL3608308, “Design, synthesis and antiproliferative activity of novel heterobivalent hybrids based on imidazo[2,1-b][1,3,4]thiadiazole and imidazo[2,1-b][1,3]thiazole scaffolds” (Eur J Med Chem, 2015):
Active and inactive are the calls of the source. The rule behind the calls is not given here.

Legend:
U-937 [1] = assay: Induction of apoptosis in human U937 cells assessed as induction of increase in apoptotic bodies at 3 uM incubated for 8 hrs by Hoechst 33258 staining based fluorescent microscopy; format: functional, cell-based
HL-60 [2] = assay: Induction of apoptosis in human HL60 cells assessed as hypodiploid cells level at 1 and 10 uM incubated for 24 hrs by propidium iodide staining based flow cytometry; format: functional, cell-based
U-937 [3] = assay: Induction of apoptosis in human U937 cells over-expressing human Bcl-2 assessed as induction of cell shrinkage at 3 uM incubated for 8 hrs by Hoechst 33258 staining based fluorescent microscopy; format: functional
FM3A = assay: Antiproliferative activity against mouse FM3A cells assessed as inhibition of cell proliferation incubated for 2 days by Coulter counter based assay; format: functional; details: 48 h
HL-60 [4] = assay: Induction of apoptosis in human HL60 cells assessed as hypodiploid cells level at 1 uM incubated for 24 hrs by propidium iodide staining based flow cytometry relative to untreated control; format: functional
HL-60 [5] = assay: Induction of apoptosis in human HL60 cells assessed as induction of morphological changes by inverted phase contrast microscopy; format: functional, cell-based
HL-60 [6] = assay: Induction of DNA laddering in human HL60 cells at 3 to 10 uM incubated for 24 hrs by ethidium bromide staining based gel electrophoresis method; format: functional, cell-based
U-937 [7] = assay: Induction of apoptosis in human U937 cells assessed as cleavage of pro-caspase-3 at 3 uM incubated for 8 hrs by immunoblot method; format: functional, cell-based
HL-60 [8] = assay: Induction of apoptosis in human HL60 cells assessed as increase in cytochrome c release into cytosol at 3 uM incubated for 8 hrs by immunoblot method; format: functional, cell-based
U-937 [9] = assay: Induction of apoptosis in human U937 cells assessed as induction of morphological changes by inverted phase contrast microscopy; format: functional, cell-based
SK-MEL-1 = assay: Cytotoxicity against human SK-MEL-1 cells assessed as reduction in cell viability incubated for 72 hrs by MTT assay; format: functional, cell-based; details: for IC50: SK-MEL-1, 72 h
U-937 [10] = assay: Induction of apoptosis in human U937 cells assessed as cleavage of pro-caspase-9 at 3 uM incubated for 8 hrs by immunoblot method; format: functional, cell-based
U-937 [11] = assay: Cytotoxicity against human U937 cells assessed as reduction in cell viability incubated for 72 hrs by MTT assay; format: functional, cell-based; details: for IC50: U-937, 72 h
U-937 [12] = assay: Induction of apoptosis in human U937 cells over-expressing human Bcl-2 assessed as induction of increase in condensed and fragmented chromatin at 3 uM incubated for 8 hrs by Hoechst 33258 staining based fluorescent microscopy; format: functional, cell-based
U-937 [13] = assay: Induction of apoptosis in human U937 cells assessed as increase in cytochrome c release into cytosol at 3 uM incubated for 8 hrs by immunoblot method; format: functional, cell-based
CCRF-CEM = assay: Antiproliferative activity against human CEM cells assessed as inhibition of cell proliferation incubated for 3 days by Coulter counter based assay; format: functional; details: 72 h
U-937 [14] = assay: Induction of apoptosis in human U937 cells assessed as induction of increase in condensed and fragmented chromatin at 3 uM incubated for 8 hrs by Hoechst 33258 staining based fluorescent microscopy; format: functional, cell-based
HL-60 [15] = assay: Induction of apoptosis in human HL60 cells assessed as cleavage of pro-caspase-9 at 3 uM incubated for 8 hrs by immunoblot method; format: functional, cell-based
HL-60 [16] = assay: Induction of apoptosis in human HL60 cells assessed as cleavage of pro-caspase-8 at 3 uM incubated for 8 hrs by immunoblot method; format: functional, cell-based
HL-60 [17] = assay: Cytotoxicity against human HL60 cells assessed as reduction in cell viability incubated for 72 hrs by MTT assay; format: functional, cell-based; details: for IC50: HL-60, 72 h
U-937 [18] = assay: Induction of apoptosis in human U937 cells assessed as cleavage of pro-caspase-8 at 3 uM incubated for 8 hrs by immunoblot method; format: functional, cell-based
HL-60 [19] = assay: Induction of apoptosis in human HL60 cells assessed as cleavage of pro-caspase-3 at 3 uM incubated for 8 hrs by immunoblot method; format: functional, cell-based
U-937 [20] = assay: Induction of apoptosis in human U937 cells assessed as induction of cell shrinkage at 3 uM incubated for 8 hrs by Hoechst 33258 staining based fluorescent microscopy; format: functional
L1210 [21] = assay: Antiproliferative activity against mouse L1210 cells assessed as inhibition of cell proliferation incubated for 2 days by Coulter counter based assay; format: functional; details: L1210, 48 h
U-937 [22] = assay: Induction of apoptosis in human U937 cells over-expressing human Bcl-2 assessed as induction of morphological changes by inverted phase contrast microscopy; format: functional, cell-based
U-937 [23] = assay: Induction of apoptosis in human U937 cells over-expressing human Bcl-2 assessed as induction of increase in apoptotic bodies at 3 uM incubated for 8 hrs by Hoechst 33258 staining based fluorescent microscopy; format: functional, cell-based
HL-60 [24] = assay: Induction of apoptosis in human HL60 cells assessed as cleavage of pro-caspase-3/7 activity at 3 uM incubated for 8 hrs DEVD-pNA chromogenic substrate proteolytic cleavage assay; format: functional
U-937 [25] = assay: Induction of apoptosis in human U937 cells over-expressing human Bcl-2 assessed as increase in cytochrome c release into cytosol at 3 uM incubated for 8 hrs by immunoblot method; format: functional, cell-based
U-937 [26] = assay: Cytotoxicity against human U937 cells over-expressing human Bcl-2 assessed as reduction in cell viability incubated for 72 hrs by MTT assay; format: functional, cell-based; details: for IC50: U-937, 72 h
HeLa = assay: Antiproliferative activity against human HeLa cells assessed as inhibition of cell proliferation incubated for 4 days by Coulter counter based assay; format: functional; details: 96 h
HL-60 [27] = assay: Induction of apoptosis in human HL60 cells assessed as hypodiploid cells level at 1 uM incubated for 24 hrs by propidium iodide staining based flow cytometry (reference value: 2.6 +/- 0.6%); format: functional
L1210 [28] = assay: Cytotoxicity against mouse L1210 cells; format: functional, cell-based

SMILES: C=C(Br)C(=O)Nc1cccc(-c2cn3nc(-c4ccc(F)cc4)sc3n2)c1
- Activity (U-937 [1]): Active
- Activity (HL-60 [2]): Dose-dependent effect
- Activity (U-937 [3]): Active
- IC50 (FM3A): 610 nM
- fold change (FC) (HL-60 [4]): 4.6
- Activity (HL-60 [5]): Active
- Activity (HL-60 [6]): inactive
- Activity (U-937 [7]): Active
- Activity (HL-60 [8]): Active
- Activity (U-937 [9]): Active
- Activity (SK-MEL-1): Dose-dependent effect
- IC50 (SK-MEL-1): 1100 nM
- Activity (U-937 [10]): Active
- Activity (U-937 [11]): Dose-dependent effect
- IC50 (U-937 [11]): 560 nM
- Activity (U-937 [12]): Active
- Activity (U-937 [13]): Active
- IC50 (CCRF-CEM): 830 nM
- Activity (U-937 [14]): Active
- Activity (HL-60 [15]): Active
- Activity (HL-60 [16]): Active
- Activity (HL-60 [17]): Dose-dependent effect
- IC50 (HL-60 [17]): 530 nM
- Activity (U-937 [18]): Active
- Activity (HL-60 [19]): Active
- Activity (U-937 [20]): Active
- IC50 (L1210 [21]): 250 nM
- Activity (U-937 [22]): Active
- Activity (U-937 [23]): Active
- fold change (FC) (HL-60 [24]): 2.3
- Activity (U-937 [25]): Active
- Activity (U-937 [26]): Dose-dependent effect
- IC50 (U-937 [26]): 370 nM
- IC50 (HeLa): 870 nM
- Activity (HL-60 [27]): 12.1%

SMILES: C=C(Br)C(=O)O
- IC50 (L1210 [28]): > 120000 nM

SMILES: C=C(Br)C(=O)Nc1cccc(-c2cn3nc(-c4ccc(OC)c(OC)c4)sc3n2)c1
- Activity (U-937 [1]): Active
- Activity (HL-60 [2]): Dose-dependent effect
- Activity (U-937 [3]): Active
- IC50 (FM3A): 110 nM
- fold change (FC) (HL-60 [4]): 6
- Activity (HL-60 [5]): Active
- Activity (HL-60 [6]): inactive
- Activity (U-937 [7]): Active
- Activity (HL-60 [8]): Active
- Activity (U-937 [9]): Active
- Activity (SK-MEL-1): Dose-dependent effect
- IC50 (SK-MEL-1): 770 nM
- Activity (U-937 [10]): Active
- Activity (U-937 [11]): Dose-dependent effect
- IC50 (U-937 [11]): 270 nM
- Activity (U-937 [12]): Active
- Activity (U-937 [13]): Active
- IC50 (CCRF-CEM): 380 nM
- Activity (U-937 [14]): Active
- Activity (HL-60 [15]): Active
- Activity (HL-60 [16]): Active
- Activity (HL-60 [17]): Dose-dependent effect
- IC50 (HL-60 [17]): 210 nM
- Activity (U-937 [18]): Active
- Activity (HL-60 [19]): Active
- Activity (U-937 [20]): Active
- IC50 (L1210 [21]): 42 nM
- Activity (U-937 [22]): Active
- Activity (U-937 [23]): Active
- fold change (FC) (HL-60 [24]): 3.2
- Activity (U-937 [25]): Active
- Activity (U-937 [26]): Dose-dependent effect
- IC50 (U-937 [26]): 210 nM
- IC50 (HeLa): 610 nM
- Activity (HL-60 [27]): 16%

SMILES: C=C(Br)C(=O)Nc1cccc(-c2cn3c(-c4ccc(OC)cc4)csc3n2)c1
- Activity (U-937 [1]): Active
- Activity (HL-60 [2]): Dose-dependent effect
- Activity (U-937 [3]): Active
- IC50 (FM3A): 620 nM
- fold change (FC) (HL-60 [4]): 4
- Activity (HL-60 [5]): Active
- Activity (HL-60 [6]): inactive
- Activity (U-937 [7]): Active
- Activity (HL-60 [8]): Active
- Activity (U-937 [9]): Active
- Activity (SK-MEL-1): Dose-dependent effect
- IC50 (SK-MEL-1): 1000 nM
- Activity (U-937 [10]): Active
- Activity (U-937 [11]): Dose-dependent effect
- IC50 (U-937 [11]): 630 nM
- Activity (U-937 [12]): Active
- Activity (U-937 [13]): Active
- IC50 (CCRF-CEM): 500 nM
- Activity (U-937 [14]): Active
- Activity (HL-60 [15]): Active
- Activity (HL-60 [16]): Active
- Activity (HL-60 [17]): Dose-dependent effect
- IC50 (HL-60 [17]): 610 nM
- Activity (U-937 [18]): Active
- Activity (HL-60 [19]): Active
- Activity (U-937 [20]): Active
- IC50 (L1210 [21]): 200 nM
- Activity (U-937 [22]): Active
- Activity (U-937 [23]): Active
- fold change (FC) (HL-60 [24]): 3.8
- Activity (U-937 [25]): Active
- Activity (U-937 [26]): Dose-dependent effect
- IC50 (U-937 [26]): 370 nM
- IC50 (HeLa): 860 nM
- Activity (HL-60 [27]): 11.1%

SMILES: C=C(Br)C(=O)Nc1cccc(-c2cn3nc(-c4cccs4)sc3n2)c1
- Activity (U-937 [1]): Active
- Activity (HL-60 [2]): Dose-dependent effect
- Activity (U-937 [3]): Active
- IC50 (FM3A): 370 nM
- fold change (FC) (HL-60 [4]): 5.6
- Activity (HL-60 [5]): Active
- Activity (HL-60 [6]): inactive
- Activity (U-937 [7]): Active
- Activity (HL-60 [8]): Active
- Activity (U-937 [9]): Active
- Activity (SK-MEL-1): Dose-dependent effect
- IC50 (SK-MEL-1): 690 nM
- Activity (U-937 [10]): Active
- Activity (U-937 [11]): Dose-dependent effect
- IC50 (U-937 [11]): 570 nM
- Activity (U-937 [12]): Active
- Activity (U-937 [13]): Active
- IC50 (CCRF-CEM): 410 nM
- Activity (U-937 [14]): Active
- Activity (HL-60 [15]): Active
- Activity (HL-60 [16]): Active
- Activity (HL-60 [17]): Dose-dependent effect
- IC50 (HL-60 [17]): 380 nM
- Activity (U-937 [18]): Active
- Activity (HL-60 [19]): Active
- Activity (U-937 [20]): Active
- IC50 (L1210 [21]): 170 nM
- Activity (U-937 [22]): Active
- Activity (U-937 [23]): Active
- fold change (FC) (HL-60 [24]): 3
- Activity (U-937 [25]): Active
- Activity (U-937 [26]): Dose-dependent effect
- IC50 (U-937 [26]): 270 nM
- IC50 (HeLa): 670 nM
- Activity (HL-60 [27]): 14.5%

SMILES: C=C(Br)C(=O)Nc1cccc(-c2cn3nc(-c4ccc(OC)cc4)sc3n2)c1
- IC50 (FM3A): 890 nM
- IC50 (CCRF-CEM): 1200 nM
- IC50 (L1210 [21]): 940 nM
- IC50 (HeLa): 2300 nM
